# Measured values as given in patent US20250332183A1, “COMPOSITIONS AND METHODS FOR THE STIMULATION OF INTERMEDIATE MACROPHAGES AND TREATMENTS THEREWITH” (priority 2024, published 2025).
# “Also recorded” adds a separate entry of the source. Read-outs that look alike come from different tables or passages of the source.
# Legend:
# [1] = tested on: preterm lamb model of BPD; assay: Respiratory gas exchange / oxygenation and ventilation indices in ventilated preterm lambs; format: in vivo
# Method: For dose-optimization, preterm (PT) lambs were delivered at ˜128d (d; saccular stage of lung development; ˜85% gestation) after maternal antenatal steroids exposure. […] After delivery and surfactant administration, PT lambs were maintained on invasive mechanical ventilation (IMV) for 7d followed by 3d noninvasive respiratory support. For the early-stage study, outcomes were determined for PT lambs over DOL1-10. For the late-stage study, outcomes were determined for former preterm (FPT) lambs (vehicle, AVR-48 treated) that were weaned from respiratory support after 10d and were maintained in the lamb intensive care unit for a further 80d. Outcomes included functional, structural, molecular, and neurobehavioral assessments. Term reference lambs that were never ventilated were used as developmental references for the FPT lambs.
# Arterial blood gases were obtained starting at 15 min of postnatal life and taken every 15 min for the first 90 min of postnatal life. FiO2 was decreased to attain a target oxygenation of O2 saturation 88-94% by pulse oximetry (Model SurgiVet V9200IBP/Temp, Smith Medical ASD, Inc., St. Paul, MN). PIP was adjusted to attain a target PaCO2 between 45 and 60 mmHg. The resultant pH range was between 7.25-7.35.
# Study design. A randomized, blinded, placebo-controlled study design was used for both endpoints. For each endpoint study, one group of PT lambs was treated with vehicle (saline, intravenously, iv, over about 10 min) for 7d and thus served as control. Another group of PT lambs was treated iv with AVR-48 for 7d. Either treatment was started at 6 h of postnatal life to allow the PT lambs to stabilize after Cesarean-section delivery and resuscitation physiologically and to permit initiation of ventilator-induced lung injury. The inventors relied on visual identification of biological sex at the time of delivery in the absence of an ultrasound unit in the lamb intensive care unit. The inventors tracked sex as a biological variable, but the study could not assess differences in outcomes based on sex because of small sample sizes.
# [2] = efficacy dose 10 mg/kg intraperitoneal injection; read-out: Cmax in mouse pups' plasma; cited from earlier work
# [3] = Plasma pharmacokinetics of AVR-48 after iv dosing in preterm lambs; format: in vivo, lamb
# Method: Formulation and dosing of AVR-48. AVR-48 (3 mg/mL) was formulated in 0.9% sterile saline and filtered through a 0.2-micron syringe filter into 10 mL serum vials ready for dosing. The efficacy dose was determined in a pilot study by stepwise escalating the AVR-48 dose concentrations. […] The vehicle control groups received 0.9% sterile saline every 12 hours (h).
# Pharmacokinetic study. The pharmacokinetics (PK) of AVR-48 were determined using plasma from the PT lambs following twice daily IV infusion (10 min) of AVR-48 every 12 h for 7 days. Tested doses were 0 (n=2), 0.1 (n=1), 0.3 (n=1), 1.0 (n=2), 3.0 (n=3), and 9 (n=1) mg/kg. PK evaluation for AVR-48 was only performed for DOL1 (12 time points between 0 and 12 h after the initial dose; volume of plasma samples through DOL2-7 was inadequate for PK evaluation). Quality-controlled plasma bioanalytical data were transferred from the Bioanalytical group to the PK Scientist of the Biopharmaceutics Department of Pharmascience Inc. Samples were analyzed, using Phoenix WinNonlin software, version 8.1 (Certara, USA), using a previously standardized HPLC/LC/MS method.
# [4] = tested on: TLR4 and pathway-related cytokines, apoptosis, proliferation and permeability markers in lung tissue homogenates; assay: Immunoblot and RT-PCR of lamb lung tissue homogenates; format: in vivo
# Method: For molecular analyses, the right caudal lobe was cut into 1 cm^3 pieces (˜1 g each), again using systematic, uniform, random sampling methods. The lung pieces were from peripheral tissue devoid of visceral pleura and central airways, vessels, and connective tissue. The pieces were snap-frozen in liquid nitrogen and stored at −80° C. Homogenates of frozen tissue pieces were used for quantitative real-time RT-PCR and immunoblot analyses. Expression of mRNA was normalized to GAPDH. For immunoblot analysis, cleaved caspase 3 was used (EnzoADI-AAP-113, Enzo Life Sciences, Inc., Farmingdale, NY), PCNA (ab2426, Abcam, Cambridge, MA), and VEGF-R2 (sc-393163, Santa Cruz Biotechnology, Dallas, TX) proteins. Positive controls for immunoblot were the respective native proteins. Protein abundance was normalized, using Memcode (P124585, Fisher Scientific, Pittsburgh, PA).
# [5] = early-stage study DOL 1-7, vs vehicle
# [6] = early-stage study, PT lambs, 3.0 mg/kg, vs vehicle
# [7] = 3.00 mg/kg bid iv, Day 1, 0 to 12 hr post dose, lamb plasma
# [8] = 3.00 mg/kg bid iv, Day 1, lamb plasma
# [9] = late-stage study, FPT lambs vs FPT vehicle
structure (smiles),measurement,setting,value
CC(=O)NC1C(Oc2ccc([N+](=O)[O-])cc2)OC(CO)C(O)C1O (stereo not drawn) [AVR-48],BPD-like symptoms,"[1]; 10d period, dose escalation 0.1-9.0 mg/kg/dose",diminished in a dose-related manner
same,respiratory severity score (RSS),"[1]; early-stage pilot, PT lambs, 1.0 mg/kg iv every 12 h",improved moderately
same,FiO2 and PaO2,[1]; [5],No statistical difference
same,PIP and PaCO2,[1]; [5],No statistical difference
same,respiratory severity score (RSS),"[1]; early-stage study, PT lambs, 3.0 mg/kg iv every 12 h, vs vehicle, 3 mg/kg",Significant improvements; also recorded: significantly improved
same,Alveolar-arterial (A-a) gradient,[1]; [6],significantly improved
same,SpO2/FiO2 (SF) ratio,[1]; [6],significantly improved
same,oxygenation index,[1]; [6],significantly improved
same,Cmax,[2],5.7 µM
same,AUC(0-t),[3]; [7],4222.9 ± 1835.9 ng·h/mL
same,Cmax,[3]; [7],3885.7 ± 1458.7 ng/mL
same,Tmax,"[3]; 3.00 mg/kg bid iv, Day 1, 0 to 12 hr post dose, male and female lamb plasma",15 min
same,"C0 (theoretical Cmax, concentration extrapolated to 0 hr)",[3]; [8],5138.8 ng/mL
same,CL,[3]; [8],13.19 mL/min/kg
same,T1/2,[3]; [8],38.4 ± 14.4 min
same,Tlast,[3]; [8],4.75 h
same,Vd,[3]; [8],0.6684 ± 0.129 L/kg
same,plasma concentration 15 minutes after each repeat dosing,"[3]; 3.0 mg/kg iv every 12 h for 7 d, lamb plasma",3886.6 ± 619.7 ng/mL
same,Cmax,"[3]; 3.0 mg/kg/dose iv, lamb plasma, read-out: Cmax",10.7 µM
same,Exposure (AUC(0-t)) over the dose range tested,[3]; 0.1-9 mg/kg/dose iv,increased dose-relatedly; also recorded: increased in a dose-related manner
same,repeat dose Cmax,"[3]; iv every 12 h for 7 d, 0.1-9 mg/kg/dose",consistent and dose-dependent
same,P53 in lung,"[4]; 90-day study, vs FPT vehicle lamb lungs",higher
same,cleaved caspase-3 protein levels in lung,"[4]; DOL10, PT lambs vs vehicle",significantly lower level
same,"mRNA levels for p53, caspase-3, c-Myc, and TGF-β in lung","[4]; DOL10, PT lambs vs vehicle",No significant difference
same,relative mRNA levels of TLR4 and cytokines in lung,"[4]; PT lambs vs control, FPT and term lambs",No differences were found
same,protein concentration of TLR4 and pathway-related cytokines in lung tissue,[4]; early-stage study,no differences were detected
same,VEGF-A protein level in lung,"[4]; early-stage study, 10d, PT group vs vehicle",significant decrease
same,TLR4 protein concentration (relative protein level) in lung tissue,"[4]; late-stage study (DOL90), FPT AVR-48 lambs",0.007±0.004
same,TLR4 protein concentration in lung tissue vs vehicle,"[4]; late-stage study (DOL90), FPT lambs vs FPT vehicle",significantly lower
same,"mRNA expression and protein level for VEGF-A, VEGFR2, and SP-B in lung","[4]; late-stage study, 90d, FPT AVR-48 vs FPT vehicle",no significant difference
same,IL-6 protein in lung tissue,[4]; [9],appeared lower (not significant)
same,IL-10 protein concentration in lung tissue,[4]; [9],appeared higher (not significant)
same,TNF-α protein in lung tissue,[4]; [9],appeared lower (not significant)
